Results published in patent US20120149625A1, “Detergent Composition” (Novozymes A/S, priority 2009, published 2012).
Where two headings read alike, the source gives them in different places. Residues, ends and D or L forms follow the SMILES beside them. *: point of attachment. Cbz = O=C(OCc1ccccc1)*

How the values were obtained:
[1] = target: T1, Savinase (Lederbergia lenta, UniProt P29600); test: AMSA laundry detergency, powder detergent, various inhibitors (Example 1); details: 30 nM protease, 40° C., 15° dH
T1 sequence (P29600 1-269): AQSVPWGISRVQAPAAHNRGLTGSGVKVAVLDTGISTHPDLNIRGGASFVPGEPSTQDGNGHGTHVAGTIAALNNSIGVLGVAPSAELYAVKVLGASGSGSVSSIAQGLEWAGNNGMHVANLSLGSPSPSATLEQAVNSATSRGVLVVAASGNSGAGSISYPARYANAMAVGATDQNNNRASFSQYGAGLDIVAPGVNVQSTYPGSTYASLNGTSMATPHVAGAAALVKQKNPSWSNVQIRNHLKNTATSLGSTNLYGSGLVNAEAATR

[2] = target: T1, Savinase; test: biochemical; details: substrate SucAAPF-pNA, 0,1M TRIS pH 9.0, 25° C., [E]0=6E-09 M, read-out: inhibition constant Ki
[3] = target: T2, Alcalase (Bacillus licheniformis, UniProt P00780); test: AMSA laundry detergency, powder detergent, various inhibitors (Example 1); details: 30 nM protease, 40° C., 15° dH, inhibitor dosage 5, None = 100%
T2 construct: purchased Novozymes A/S
T2 sequence (P00780 106-379): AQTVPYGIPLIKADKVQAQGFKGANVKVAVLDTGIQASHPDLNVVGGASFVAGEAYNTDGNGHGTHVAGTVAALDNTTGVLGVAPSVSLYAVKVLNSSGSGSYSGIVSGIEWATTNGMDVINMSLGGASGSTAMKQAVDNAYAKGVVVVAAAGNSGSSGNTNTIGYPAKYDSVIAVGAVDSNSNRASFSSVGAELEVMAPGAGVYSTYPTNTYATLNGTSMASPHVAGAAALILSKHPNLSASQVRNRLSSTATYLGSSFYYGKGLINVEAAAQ

[4] = target: T1, Savinase; test: AMSA laundry detergency, laundry liquid model detergent, various inhibitors (Example 2); details: 30 nM Savinase, 20° C., 15° dH, inhibitor dosering 5, None = 100%
Description: Model detergents and test materials for laundry were as follows:
After washing the textiles were flushed in tap water and dried.
Detergency was determined with various inhibitors in the laundry liquid model detergent with 30 nM protease (Savinase). Washing was done at 20° C. and water hardness 15° dH with test swatches EMPA117EH.

[5] = target: T1, Savinase; test: Washing test with protease and inhibitor at various molar ratios (Example 4); details: 20° C., 15° dH
Description: Washing tests were made in detergents with a protease and an inhibitor. Washing conditions were 20 minutes washing at 20° C. and 15° dH. […] The inhibitor was inhibitor Z-GAY-H at various molar ratios. The results are shown as detergency with the inhibitor relative to detergency at the same conditions without the inhibitor:
The detergent was a powder detergent with the following composition at 2.5 g/L.
20.05 g Na-citrate dehydrate
The liquid detergent described under the AMSA assay was used.
The powder detergent described under the AMSA assay was used.

[6] = target: T2, Alcalase; test: as above; details: 30 nM Alcalase, 20° C., 15° dH
[7] = target: Savinase variant S99SE (Lederbergia lenta, UniProt P29600, INS97E); details: Powder Detergent 2 at 2.5 g/L, 30 nM Savinase variant S99SE, 20° C., 15° dH
[8] = target: Savinase variant Y167A + R170S + A194P (Lederbergia lenta, UniProt P29600, A188P/R164S/Y161A); details: Powder Detergent 2 at 2.5 g/L, 30 nM Savinase variant Y167A + R170S + A194P, 20° C., 15° dH
[9] = test system: Protease 10R; test: Washing test in commercial liquid detergents (Example 4); details: Liquid detergent Commercial 1; inhibitor:protease molar ratio 5:1; 20 min, 20° C., 15° dH
Description: (§1) Washing tests were made in detergents with a protease and an inhibitor. Washing conditions were 20 minutes washing at 20° C. and 15° dH. The protease was Savinase at 30 nM. The inhibitor was inhibitor Z-GAY-H at various molar ratios. The results are shown as detergency with the inhibitor relative to detergency at the same conditions without the inhibitor:
(§2) Two commercial liquid detergents purchased in England were tested with inhibitor:protease molar ratio of 5:1. Protease 10R is described in WO 88/03947. Protease PD138 is described in […]

[10] = test system: Protease PD138; test: as above; details: Liquid detergent Commercial 1; inhibitor:protease molar ratio 5:1; 20 min, 20° C., 15° dH
Description: as §1, §2

[11] = inhibitor:protease molar ratio 500, None = 100%
[12] = molar ratio not given, None = 100%
[13] = inhibitor:protease molar ratio 5, None = 100%

Sequence of Savinase variant S99SE (P29600 other isoform, or with tags, fused parts or gaps INS97E): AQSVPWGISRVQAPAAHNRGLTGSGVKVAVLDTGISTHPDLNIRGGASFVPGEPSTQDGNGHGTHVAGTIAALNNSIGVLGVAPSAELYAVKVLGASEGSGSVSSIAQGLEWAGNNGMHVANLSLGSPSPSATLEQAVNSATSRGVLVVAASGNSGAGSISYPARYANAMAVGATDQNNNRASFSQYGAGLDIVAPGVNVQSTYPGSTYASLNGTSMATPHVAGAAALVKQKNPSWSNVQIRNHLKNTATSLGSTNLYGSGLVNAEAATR
Sequence of Savinase variant Y167A + R170S + A194P (P29600 whole entry Y161A/R164S/A188P): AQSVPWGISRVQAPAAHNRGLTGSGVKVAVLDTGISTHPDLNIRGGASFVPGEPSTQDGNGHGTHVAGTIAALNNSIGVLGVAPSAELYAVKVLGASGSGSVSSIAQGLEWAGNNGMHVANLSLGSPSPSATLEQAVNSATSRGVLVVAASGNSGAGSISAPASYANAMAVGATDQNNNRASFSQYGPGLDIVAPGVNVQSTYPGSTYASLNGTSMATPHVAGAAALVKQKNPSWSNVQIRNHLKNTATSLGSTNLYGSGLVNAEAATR

Structure (SMILES): O=Cc1ccc(B(O)O)cc1 [Inhibitor 4-FPBA, 4-formyl-phenyl-boronic acid]
- CS-37 % performance [1, 11]: 128%
- EMPA117EH % performance [1, 11]: 107%
- CS-37 % performance [1, 12]: 137%
- EMPA117EH % performance [1, 12]: 111%

Structure (SMILES): C[C@H](NC(=O)CNC(=O)OCc1ccccc1)C(=O)N[C@H](C=O)Cc1ccc(O)cc1 [Z-GAY-H] (Cbz-Gly-Ala-Tyr-aldehyde)
- Ki [2]: 7.4 nM
- CS-37 % performance [1, 13]: 242%
- EMPA117EH % performance [1, 13]: 117%
- CS-37 % performance [3]: 147%
- EMPA117EH % performance [3]: 108%
- EMPA117EH % performance increase [4]: 114%
- detergency with the inhibitor relative to without ([5]; Liquid Detergent (AMSA model), 30 nM Savinase, molar ratio 1.5): 114%
- detergency with the inhibitor relative to without ([5]; Liquid Detergent (AMSA model), 30 nM Savinase, molar ratio 3): 109%
- detergency with the inhibitor relative to without ([5]; Liquid Detergent (AMSA model), 30 nM Savinase, molar ratio 5): 108%
- detergency with the inhibitor relative to without ([5]; Powder Detergent 1 (AMSA model), 10 nM Savinase, molar ratio 0.5): 112%
- detergency with the inhibitor relative to without ([5]; Powder Detergent 1 (AMSA model), 10 nM Savinase, molar ratio 1): 108%
- detergency with the inhibitor relative to without ([5]; Powder Detergent 1 (AMSA model), 10 nM Savinase, molar ratio 1.5): 111%
- detergency with the inhibitor relative to without ([5]; Powder Detergent 1 (AMSA model), 10 nM Savinase, molar ratio 2): 121%
- detergency with the inhibitor relative to without ([5]; Powder Detergent 1 (AMSA model), 10 nM Savinase, molar ratio 3): 118%
- detergency with the inhibitor relative to without ([5]; Powder Detergent 1 (AMSA model), 10 nM Savinase, molar ratio 5): 118%
- detergency with the inhibitor relative to without ([5]; Powder Detergent 1 (AMSA model), 10 nM Savinase, molar ratio 10): 122%
- detergency with the inhibitor relative to without ([5]; Powder Detergent 1 (AMSA model), 10 nM Savinase, molar ratio 15): 116%
- detergency with the inhibitor relative to without ([5]; Powder Detergent 1 (AMSA model), 10 nM Savinase, molar ratio 20): 104%
- detergency with the inhibitor relative to without ([5]; Powder Detergent 1 (AMSA model), 10 nM Savinase, molar ratio 30): 101%
- detergency with the inhibitor relative to without ([5]; Powder Detergent 1 (AMSA model), 10 nM Savinase, molar ratio 50): 95%
- detergency with the inhibitor relative to without ([5]; Powder Detergent 1 (AMSA model), 30 nM Savinase, molar ratio 0.5): 106%
- detergency with the inhibitor relative to without ([5]; Powder Detergent 1 (AMSA model), 30 nM Savinase, molar ratio 1): 105%
- detergency with the inhibitor relative to without ([5]; Powder Detergent 1 (AMSA model), 30 nM Savinase, molar ratio 1.5): 107%
- detergency with the inhibitor relative to without ([5]; Powder Detergent 1 (AMSA model), 30 nM Savinase, molar ratio 2): 108%
- detergency with the inhibitor relative to without ([5]; Powder Detergent 1 (AMSA model), 30 nM Savinase, molar ratio 3): 105%
- detergency with the inhibitor relative to without ([5]; Powder Detergent 1 (AMSA model), 30 nM Savinase, molar ratio 5): 110%
- detergency with the inhibitor relative to without ([5]; Powder Detergent 1 (AMSA model), 30 nM Savinase, molar ratio 10): 107%
- detergency with the inhibitor relative to without ([5]; Powder Detergent 1 (AMSA model), 30 nM Savinase, molar ratio 15): 99%
- detergency with the inhibitor relative to without ([5]; Powder Detergent 1 (AMSA model), 30 nM Savinase, molar ratio 20): 95%
- detergency with the inhibitor relative to without ([5]; Powder Detergent 1 (AMSA model), 30 nM Savinase, molar ratio 30): 83%
- detergency with the inhibitor relative to without ([5]; Powder Detergent 1 (AMSA model), 30 nM Savinase, molar ratio 50): 80%
- detergency with the inhibitor relative to without ([5]; Powder Detergent 2 at 2.5 g/L, 30 nM Savinase, molar ratio 1.5): 132%
- detergency with the inhibitor relative to without ([5]; Powder Detergent 2 at 2.5 g/L, 30 nM Savinase, molar ratio 3): 140%
- detergency with the inhibitor relative to without ([5]; Powder Detergent 2 at 2.5 g/L, 30 nM Savinase, molar ratio 5): 134%
- detergency with the inhibitor relative to without ([6]; Liquid Detergent (AMSA model), molar ratio 1.5): 145%
- detergency with the inhibitor relative to without ([6]; Liquid Detergent (AMSA model), molar ratio 3): 169%
- detergency with the inhibitor relative to without ([6]; Liquid Detergent (AMSA model), molar ratio 5): 146%
- detergency with the inhibitor relative to without ([6]; Liquid Detergent (AMSA model), molar ratio 7.5): 149%
- detergency with the inhibitor relative to without ([6]; Liquid Detergent (AMSA model), molar ratio 10): 147%
- detergency with the inhibitor relative to without ([6]; Powder Detergent 2 at 2.5 g/L, molar ratio 3): 103%
- detergency with the inhibitor relative to without ([6]; Powder Detergent 2 at 2.5 g/L, molar ratio 5): 113%
- detergency with the inhibitor relative to without ([6]; Powder Detergent 2 at 2.5 g/L, molar ratio 7.5): 116%
- detergency with the inhibitor relative to without ([6]; Powder Detergent 2 at 2.5 g/L, molar ratio 10): 119%
- detergency with the inhibitor relative to without ([7]; molar ratio 1.5): 100%
- detergency with the inhibitor relative to without ([7]; molar ratio 3): 103%
- detergency with the inhibitor relative to without ([7]; molar ratio 5): 106%
- detergency with the inhibitor relative to without ([8]; molar ratio 1.5): 100%
- detergency with the inhibitor relative to without ([8]; molar ratio 3): 107%
- detergency with the inhibitor relative to without ([8]; molar ratio 5): 107%
- Detergency increase [9]: 107%
- Detergency increase [10]: 107%
